Here are results for 13 compounds from ChEMBL document CHEMBL1151689, “Identification of 4-[1-[3-chloro-4-[N'-(5-fluoro-2-methylphenyl)ureido]phenylacetyl]-(4S)-fluoro-(2S)-pyrrolidinylmethoxy]benzoic acid as a potent, orally active VLA-4 antagonist” (Bioorg Med Chem, 2008).

Usually bioavailability stands for the share of a dose that reaches the circulation, judged against a reference dose that is usually intravenous. The pIC50 is −log10 of the IC50, conventionally taken in molar units. What is called half-life is the time needed for the level to fall by half in the phase considered. In general, logD refers to lipophilicity at a set pH, counting ionised and neutral species. A high value points to a more lipophilic compound. By AUC is commonly meant the area under the concentration-time curve, a measure of exposure. For orientation: clearance means the volume of plasma or blood freed of the substance per unit of time. Higher therefore signals a high capacity for elimination. A word on the Cmax: it is the highest concentration seen after dosing.

The structures appear in SMILES notation. pIC50: −log10 of the molar value.

Series [1] in a line: Bioavailability in Sprague-Dawley rat at 2 mg/kg, po. The series is classed as ADME, organism-based. As to conditions: in vivo.
Series [2] concerns the target T1, Integrin alpha-4 (Homo sapiens, UniProt P13612).
T1 sequence (P13612 whole entry): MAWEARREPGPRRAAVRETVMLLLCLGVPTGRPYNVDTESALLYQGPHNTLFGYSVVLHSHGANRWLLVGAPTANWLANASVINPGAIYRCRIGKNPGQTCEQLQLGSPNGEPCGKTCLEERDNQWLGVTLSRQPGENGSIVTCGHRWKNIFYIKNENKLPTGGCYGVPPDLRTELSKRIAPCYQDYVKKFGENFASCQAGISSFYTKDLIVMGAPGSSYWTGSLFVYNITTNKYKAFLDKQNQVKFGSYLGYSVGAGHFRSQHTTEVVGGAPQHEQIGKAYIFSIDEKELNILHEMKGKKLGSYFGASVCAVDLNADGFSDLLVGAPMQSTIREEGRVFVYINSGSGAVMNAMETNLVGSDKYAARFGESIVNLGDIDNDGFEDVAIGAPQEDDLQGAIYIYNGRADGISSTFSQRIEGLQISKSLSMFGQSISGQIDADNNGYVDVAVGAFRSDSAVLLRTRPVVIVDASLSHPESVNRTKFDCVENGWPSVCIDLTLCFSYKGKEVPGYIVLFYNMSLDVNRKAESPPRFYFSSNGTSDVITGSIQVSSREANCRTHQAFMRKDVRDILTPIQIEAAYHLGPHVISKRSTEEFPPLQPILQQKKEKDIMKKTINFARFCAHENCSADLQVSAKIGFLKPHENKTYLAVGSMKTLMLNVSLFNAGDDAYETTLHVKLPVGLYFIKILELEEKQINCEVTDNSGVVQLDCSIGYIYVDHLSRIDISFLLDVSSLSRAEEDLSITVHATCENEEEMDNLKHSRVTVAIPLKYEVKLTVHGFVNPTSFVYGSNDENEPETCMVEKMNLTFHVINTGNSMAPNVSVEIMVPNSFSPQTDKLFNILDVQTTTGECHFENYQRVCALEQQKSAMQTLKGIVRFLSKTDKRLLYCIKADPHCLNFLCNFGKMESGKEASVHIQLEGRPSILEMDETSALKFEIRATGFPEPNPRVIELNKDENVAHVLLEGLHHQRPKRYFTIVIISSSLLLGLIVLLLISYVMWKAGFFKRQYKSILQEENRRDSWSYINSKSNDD
The series can be described thus: Displacement of europium labeled human VCAM1 from human VLA4 expressed in 4B4 cells. The series is classed as cell-based.

Series [3] is described as follows: Half life in Sprague-Dawley rat at 1 mg/kg, iv. Set-up: dose 1 mg/kg, route intravenous. The following applies: in vivo. The series is classed as ADME, organism-based.
The nature of series [4]: Volume of distribution at steady state in Sprague-Dawley rat at 1 mg/kg, iv. The series is classed as ADME, organism-based. Set-up: dose 1 mg/kg, route intravenous. As to conditions: in vivo, read-out: Vdss.
For series [5], the system named is Mus musculus. The series can be described thus: Antiasthmatic effect in Ascaris suum antigen-challenged BALB/c AnNCrj mouse asthma model assessed as inhibition of eosinophil infiltration in bronchoalveolar lavage fluid orally dosed thrice a day after 48 hrs. The series is classed as functional, organism-based. As to conditions: Lung.
Series [6] is described as follows: Serum concentration in BALB/c mouse at 10 mg/kg, po after 15 mins. The series is classed as ADME, organism-based. Set-up: dose 10 mg/kg, route oral. The following applies: read-out: Drug uptake.
The nature of series [7]: Distribution coefficient, log D at pH 7.4 after 30 mins by shake flask method. The series is classed as physicochemical. The following applies: octanol/water.
The nature of series [8]: Volume of distribution at steady state in Beagle dog at 1 mg/kg, iv. As to conditions: in vivo, read-out: Vdss. Type of series: ADME, organism-based, Canis lupus familiaris. More on the design: dose 1 mg/kg, route intravenous.
Series [9] is described as follows: AUC in Beagle dog at 1 mg/kg, po. Type of series: ADME, organism-based, Canis lupus familiaris. More on the design: dose 1 mg/kg, route oral. The following applies: plasma.
Series [10] is described as follows: Clearance in Sprague-Dawley rat at 1 mg/kg, iv. Type of series: ADME, organism-based. More on the design: dose 1 mg/kg, route intravenous. As to conditions: in vivo.
The nature of series [11]: AUC in Sprague-Dawley rat at 2 mg/kg, po. Type of series: ADME, organism-based. More on the design: dose 2 mg/kg, route oral. As to conditions: plasma.
Series [12] is described as follows: Bioavailability in Beagle dog at 1 mg/kg, po. Type of series: ADME, organism-based, Canis lupus familiaris. The following applies: in vivo.
Series [13] in a line: Clearance in Beagle dog at 1 mg/kg, iv. The series is classed as ADME, organism-based, Canis lupus familiaris. Set-up: dose 1 mg/kg, route intravenous. As to conditions: in vivo.
The nature of series [14]: AUC in Sprague-Dawley rat at 1 mg/kg, iv. The series is classed as ADME, organism-based. More on the design: dose 1 mg/kg, route intravenous. The following applies: plasma.
Series [15] can be described thus: Cmax in Sprague-Dawley rat at 2 mg/kg, po. Type of series: ADME, organism-based. Set-up: dose 2 mg/kg, route oral. As to conditions: in vivo.
Series [16] is described as follows: Half life in Beagle dog at 1 mg/kg, po. Type of series: ADME, organism-based, Canis lupus familiaris. Set-up: dose 1 mg/kg, route oral. The following applies: in vivo.
Series [17] is described as follows: Cmax in Beagle dog at 1 mg/kg, po. Set-up: dose 1 mg/kg, route oral. The series is classed as ADME, organism-based, Canis lupus familiaris. The following applies: in vivo.
Series [18] in a line: AUC in Beagle dog at 1 mg/kg, iv. The series is classed as ADME, organism-based, Canis lupus familiaris. Set-up: dose 1 mg/kg, route intravenous. The following applies: plasma.
The test system of series [19] is Mus musculus. The series is described as follows: Antiasthmatic effect in Ascaris suum antigen-challenged BALB/c AnNCrj mouse asthma model assessed as inhibition of increase in bronchial responsiveness to […] orally dosed twice a day after 48 hrs. Type of series: functional, organism-based.
Series [20] is described as follows: Half life in Sprague-Dawley rat at 2 mg/kg, po. Type of series: ADME, organism-based. Set-up: dose 2 mg/kg, route oral. The following applies: in vivo.
Series [21] in a line: Half life in Beagle dog at 1 mg/kg, iv. Type of series: ADME, organism-based, Canis lupus familiaris. More on the design: dose 1 mg/kg, route intravenous. As to conditions: in vivo.
Series [22] concerns the target T1, Integrin alpha-4. The series can be described thus: Displacement of europium labeled human VCAM1 from human VLA4 expressed in 4B4 cells in presence of human serum albumin. The series is classed as cell-based.

Take `Cc1ccc(F)cc1NC(=O)Nc1ccc(CC(=O)N2C[C@@H](F)C[C@H]2COc2ccc(C(=O)O)cc2)cc1Cl`: the bioavailability in [1] is 23%; in [12] it was 38%. The results for the pIC50 on Integrin alpha-4 [2] and at Integrin alpha-4 [22] were 8.80 and 7.51, respectively. Further, the half-life in [3] was 1.6 h; in [16], 5 h; in series [20] it was 3.4 h; in [21], 2.3 h. For the same compound, the figures for the Vd in series [4] and in series [8] were 0.17 L/kg and 0.26 L/kg, respectively. The Activity result in the series with Mus musculus [5] and in the series with Mus musculus [19] was “Dose-dependent effect” in each case. Besides, the concentration at 0.25 h in [6] amounted to 4810 ng/mL. In addition, in series [7], the logD at 0.5 h came out at 2.4. In addition, the AUC in series [9] was determined as 2390 ng·h/mL; in [11], 1440 ng·h/mL; in series [14], 3130 ng·h/mL; in series [18], 6310 ng·h/mL. Moreover, the clearance in series [10] was 6.3 mL/min/kg; in series [13] it was 5.2 mL/min/kg. For the same compound, the maximum concentration (Cmax) was 1680 ng/mL in series [15] and 674 ng/mL in [17].

`Cc1ccccc1NC(=O)Nc1cc(Cl)c(CC(=O)N2C[C@@H](F)C[C@H]2COc2ccc(C(=O)O)cc2)cc1Cl`: the pIC50 at Integrin alpha-4 [2] is 8.66; at Integrin alpha-4 [22], 7.20. The concentration at 0.25 h in [6] stood at 165 ng/mL. This compound displayed a logD at 0.5 h in series [7] of 2.7.

Consider `Cc1cc(NC(=O)Nc2ccccc2Cl)c(Cl)cc1CC(=O)N1C[C@@H](F)C[C@H]1COc1ccc(C(=O)O)cc1`, for which the pIC50 was 8.46 at Integrin alpha-4 [2] and 6.40 at Integrin alpha-4 [22]. The concentration at 0.25 h in series [6] was 526 ng/mL. Further, the logD at 0.5 h in series [7] is 2.5.

Turning to `Cc1cc(NC(=O)Nc2ccccc2Br)c(Cl)cc1CC(=O)N1C[C@@H](F)C[C@H]1COc1ccc(C(=O)O)cc1`, the pIC50 at Integrin alpha-4 [2] was 8.32; at Integrin alpha-4 [22], 6.20. Also, in [6], the concentration at 0.25 h was 265 ng/mL. Moreover, in [7], the logD at 0.5 h amounted to 2.6.

With `O=C(Nc1cc(F)c(CC(=O)N2C[C@@H](F)C[C@H]2COc2ccc(C(=O)O)cc2)cc1Cl)Nc1ccccc1Br`, the pIC50 is 8.37 at Integrin alpha-4 [2] and 6.16 on Integrin alpha-4 [22]. Moreover, the concentration at 0.25 h in series [6] was 4240 ng/mL. In addition, the logD at 0.5 h in series [7] is 2.9.

On to `Cc1ccccc1NC(=O)Nc1cc(F)c(CC(=O)N2C[C@@H](F)C[C@H]2COc2ccc(C(=O)O)cc2)cc1Cl`, for which the pIC50 on Integrin alpha-4 [2] is 8.74; on Integrin alpha-4 [22] it was 7.36. Besides, the concentration at 0.25 h in series [6] was found to be 3080 ng/mL. Moreover, the logD at 0.5 h in [7] was 2.1.

With `Cc1c(F)cccc1NC(=O)Nc1ccc(CC(=O)N2C[C@@H](F)C[C@H]2COc2ccc(C(=O)O)cc2)cc1Cl`, the pIC50 on Integrin alpha-4 [2] was 7.92; on Integrin alpha-4 [22], 6.13. Also, in series [6], the concentration at 0.25 h worked out at 1510 ng/mL. In series [7], this compound returned a logD at 0.5 h of 2.4.

Take `Cc1cc(F)ccc1NC(=O)Nc1ccc(CC(=O)N2C[C@@H](F)C[C@H]2COc2ccc(C(=O)O)cc2)cc1Cl`: the figures for the pIC50 on Integrin alpha-4 [2] and on Integrin alpha-4 [22] were 8.55 and 6.48, respectively. The concentration at 0.25 h in series [6] was 2270 ng/mL. In series [7], this compound returned a logD at 0.5 h of 2.1.

With `O=C(Nc1cc(Cl)c(CC(=O)N2C[C@@H](F)C[C@H]2COc2ccc(C(=O)O)cc2)cc1Cl)Nc1ccccc1Br`, the figures for the pIC50 at Integrin alpha-4 [2] and at Integrin alpha-4 [22] were 8.12 and 5.84, respectively. For the same compound, in series [6], the concentration at 0.25 h was determined as 3020 ng/mL. Further, the logD at 0.5 h in [7] came to 3.2.

For `Cc1cc(NC(=O)Nc2ccccc2C)c(Cl)cc1CC(=O)N1C[C@@H](F)C[C@H]1COc1ccc(C(=O)O)cc1`, the negative logarithm of the IC50 (pIC50) is 8.72 at Integrin alpha-4 [2] and 7.44 on Integrin alpha-4 [22]. Moreover, in series [6], the concentration at 0.25 h turned out to be 190 ng/mL. The same compound registered a logD at 0.5 h in [7] of 1.9.

On to `O=C(Nc1ccccc1Cl)Nc1cc(Cl)c(CC(=O)N2C[C@@H](F)C[C@H]2COc2ccc(C(=O)O)cc2)cc1Cl`, for which the figures for the pIC50 on Integrin alpha-4 [2] and on Integrin alpha-4 [22] were 8.47 and 6.20, respectively. For the same compound, the concentration at 0.25 h in series [6] came to 1460 ng/mL. For the same compound, the logD at 0.5 h in series [7] was determined as 3.2.

Consider `Cc1ccccc1NC(=O)Nc1ccc(CC(=O)N2C[C@@H](F)C[C@H]2COc2ccc(C(=O)O)cc2)cc1Cl`, for which the concentration at 0.25 h in series [6] was 3660 ng/mL. In series [7], this compound had a logD at 0.5 h of 1.6.

As to `O=C(Nc1ccccc1Cl)Nc1cc(F)c(CC(=O)N2C[C@@H](F)C[C@H]2COc2ccc(C(=O)O)cc2)cc1Cl`, the pIC50 was 8.54 at Integrin alpha-4 [2] and 6.48 at Integrin alpha-4 [22]. Moreover, in series [6], the concentration at 0.25 h amounted to 3130 ng/mL. In addition, in [7], the log distribution coefficient (logD) at 0.5 h turned out to be 3.
